Laboratory results from patent US20220408731A1, “MODIFIED ANTIMICROBIAL PEPTIDES” (priority 2021, published 2022).
Converted amounts (≈) assume the structure as drawn. Bridge positions count the residues as written; N and C are the ends. Square brackets hold non-standard residues; d marks the D form. Ends that are not written are not given here. Peptide text beside a SMILES is read from it. Dab = NCC[C@H](N)C(=O)O

Tests used:
B. cinerea = assay: Drop inoculation assay on detached Nicotiana benthamiana leaves (semi-in planta); format: in vivo, Botrytis cinerea; conditions: 48 h

Compound | MIC (μM) (SFM + 2 mM CaCl2) (Botrytis cinerea) [µM] | MIC (μM) (SFM + 100 mM KCl) (Botrytis cinerea) [µM] | MIC (μM) (SFM + 100 mM NaCl) (Botrytis cinerea) [µM] | MIC (μM) SFM (Botrytis cinerea) [µM] | Gray mold symptoms, drop inoculation assay (B. cinerea; peptide at 3 μM and 6 μM) | also measured
C[C@@H](O)[C@H](NC(=O)[C@H](CS)NC(=O)[C@H](Cc1c[nH]c2ccccc12)NC(=O)[C@H](CS)NC(=O)[C@H](CCCNC(=N)N)NC(=O)[C@H](Cc1ccccc1)NC(=O)[C@H](CC(=O)O)NC(=O)[C@H](CC(=O)O)NC(=O)[C@H](CCCNC(=N)N)NC(=O)[C@H](CS)NC(=O)[C@H](CCCNC(=N)N)NC(=O)CN)C(=O)N[C@@H](CCCCN)C(=O)N[C@@H](CC(N)=O)C(=O)N[C@@H](CS)C(=O)O [GMA1C, reference compound] (H-GRCRDDFRCWCTKNC-OH; N-terminus assumed) | >12 | >12 | >12 | >12 |  | 
CC[C@H](C)[C@H](NC(=O)[C@H](CCCNC(=N)N)NC(=O)[C@H](CS)NC(=O)[C@H](CCCNC(=N)N)NC(=O)CNC(=O)[C@@H](N)CO)C(=O)N[C@@H](CC(C)C)C(=O)N[C@@H](Cc1ccccc1)C(=O)N[C@@H](CCCNC(=N)N)C(=O)N[C@@H](CS)C(=O)N[C@@H](Cc1ccccc1)C(=O)N[C@@H](CS)C(=O)N[C@H](C(=O)N[C@@H](CCCCN)C(=O)N[C@@H](CC(N)=O)C(=O)N[C@@H](CS)C(N)=O)[C@@H](C)O [GMA1C_V1] (H-SGRCRILFRCFCTKNC-NH2; N-terminus assumed) |  | >12 | >6 | >6 |  | 
CC[C@H](C)[C@@H]1NC(=O)[C@H](CCCNC(=N)N)NC(=O)[C@@H](NC(=O)[C@H](CCCNC(=N)N)NC(=O)CNC(=O)[C@@H](N)CO)CSSC[C@@H](C(N)=O)NC(=O)[C@H](CC(N)=O)NC(=O)[C@H](CCCCN)NC(=O)[C@H]([C@@H](C)O)NC(=O)[C@H](Cc2c[nH]c3ccccc23)NC(=O)[C@H](Cc2ccccc2)NC(=O)[C@H](Cc2c[nH]c3ccccc23)NC(=O)[C@H](CCCNC(=N)N)NC(=O)[C@H](Cc2ccccc2)NC(=O)[C@H](CC(C)C)NC1=O [GMA1C_V2] (H-SGRCRILFRWFWTKNC-NH2; disulfide 4-16; N-terminus assumed) | 3 | >12 | 3 | 1.5 to 3 | completely abrogated gray mold symptoms | Gray mold symptoms, drop inoculation assay (B. cinerea; peptide at 1.5 μM): more effective than GMA1C_V1
CC[C@H](C)[C@@H]1NC(=O)[C@H](CCCNC(=N)N)NC(=O)[C@@H](NC(=O)[C@H](CCCNC(=N)N)NC(=O)CNC(=O)[C@@H](N)CO)CSSC[C@@H](C(N)=O)NC(=O)[C@H](CC(N)=O)NC(=O)[C@H](CCCCN)NC(=O)[C@H]([C@@H](C)O)NC(=O)[C@H](Cc2ccccc2)NC(=O)[C@H](Cc2ccc(O)cc2)NC(=O)[C@H](Cc2c[nH]c3ccccc23)NC(=O)[C@H](CCCNC(=N)N)NC(=O)[C@H](Cc2ccccc2)NC(=O)[C@H](CC(C)C)NC1=O [GMA1C_V3] (H-SGRCRILFRWYFTKNC-NH2; disulfide 4-16; N-terminus assumed) | 6 | >12 | 3 | 1.5 (≈ 3.07 µg/mL) |  | 
C[C@@H](O)[C@H](NC(=O)[C@H](CS)NC(=O)[C@H](Cc1ccccc1)NC(=O)[C@H](CS)NC(=O)[C@H](CCCNC(=N)N)NC(=O)[C@H](CCCNC(=N)N)NC(=O)[C@H](CCCNC(=N)N)NC(=O)[C@H](Cc1ccccc1)NC(=O)CNC(=O)[C@H](CCCNC(=N)N)NC(=O)[C@H](CS)NC(=O)[C@H](CCCNC(=N)N)NC(=O)CN)C(=O)N[C@H](C(=O)N[C@@H](Cc1c[nH]cn1)C(=O)N[C@@H](CS)C(N)=O)[C@@H](C)O [GMA4AC] (H-GRCRGFRRRCFCTTHC-NH2) |  |  |  | 3 (≈ 5.88 µg/mL) |  | 
N=C(N)NCCC[C@H](NC(=O)CNC(=O)[C@@H](N)Cc1ccccc1)C(=O)N[C@@H](CS)C(=O)N[C@@H](CCCNC(=N)N)C(=O)NCC(=O)N[C@@H](Cc1ccccc1)C(=O)N[C@@H](CCCNC(=N)N)C(=O)N[C@@H](CCCNC(=N)N)C(=O)N[C@@H](CCCNC(=N)N)C(=O)N[C@@H](CS)C(=O)N[C@@H](Cc1ccccc1)C(=O)N[C@@H](CS)C(=O)N[C@@H](Cc1c[nH]c2ccccc12)C(=O)N[C@@H](CCCNC(=N)N)C(=O)N[C@@H](Cc1c[nH]c2ccccc12)C(=O)N[C@@H](CS)C(=O)O [GMA4C_V4] (H-FGRCRGFRRRCFCWRWC-OH; N-terminus assumed) |  |  |  |  |  | B. cinerea MIC (Botrytis cinerea): 1.5 µM; MIC (μM) Botrytis cinerea (Botrytis cinerea): 3 µM (≈ 6.89 µg/mL); SFM + 2 mM CaCl2 MIC (Botrytis cinerea): 6 µM; SFM + 100 mM KCl MIC (Botrytis cinerea): 3 µM; SFM + 100 mM NaCl MIC (Botrytis cinerea): 3 µM; SFM MIC (Botrytis cinerea): 3 µM
NCC[C@H](NC(=O)CNC(=O)[C@@H](N)Cc1ccccc1)C(=O)N[C@@H](CS)C(=O)N[C@@H](CCN)C(=O)NCC(=O)N[C@@H](Cc1ccccc1)C(=O)N[C@@H](CCN)C(=O)N[C@@H](CCN)C(=O)N[C@@H](CCN)C(=O)N[C@@H](CS)C(=O)N[C@@H](Cc1ccccc1)C(=O)N[C@@H](CS)C(=O)N[C@@H](Cc1c[nH]c2ccccc12)C(=O)N[C@@H](CCN)C(=O)N[C@@H](Cc1c[nH]c2ccccc12)C(=O)N[C@@H](CS)C(=O)O [GMA4C_V5, FG(Dab)C(Dab)GF(Dab)(Dab)(Dab)CFCW(Dab)WC] (H-FG[Dab]C[Dab]GF[Dab][Dab][Dab]CFCW[Dab]WC-OH; N-terminus assumed) |  |  |  |  |  | B. cinerea MIC (Botrytis cinerea): 1.5 µM; MIC (μM) Botrytis cinerea (Botrytis cinerea): 6 µM (≈ 11.8 µg/mL); SFM + 2 mM CaCl2 MIC (Botrytis cinerea): >6 µM; SFM + 100 mM KCl MIC (Botrytis cinerea): >6 µM; SFM + 100 mM NaCl MIC (Botrytis cinerea): 6 µM; SFM MIC (Botrytis cinerea): 6 µM
C[C@H](NC(=O)CN)C(=O)N[C@@H](CS)C(=O)N[C@@H](Cc1c[nH]cn1)C(=O)N[C@@H](CCCNC(=N)N)C(=O)N[C@@H](CCC(N)=O)C(=O)NCC(=O)N[C@@H](Cc1ccccc1)C(=O)NCC(=O)N[C@@H](Cc1ccccc1)C(=O)N[C@@H](C)C(=O)N[C@@H](CS)C(=O)N[C@@H](Cc1ccccc1)C(=O)N[C@@H](CS)C(=O)N[C@@H](Cc1ccc(O)cc1)C(=O)N[C@@H](CCCCN)C(=O)N[C@@H](CCCCN)C(=O)N[C@@H](CS)C(N)=O [GMA5CA_WT, reference compound] (H-GACHRQGFGFACFCYKKC-NH2; N-terminus assumed) | >12 | >12 | >12 | 6 (≈ 12.2 µg/mL) |  | 
CC(C)C[C@@H]1NC(=O)[C@@H](NC(=O)[C@H](C)NC(=O)CN)CSSC[C@@H](C(=O)N[C@@H](Cc2ccc(O)cc2)C(N)=O)NC(=O)[C@H](Cc2c[nH]cn2)NC(=O)[C@H](CCCNC(=N)N)NC(=O)[C@H](Cc2ccc(O)cc2)NC(=O)[C@H](Cc2ccc(O)cc2)NC(=O)[C@H](Cc2c[nH]c3ccccc23)NC(=O)[C@H](Cc2ccccc2)NC(=O)[C@H](Cc2c[nH]c3ccccc23)NC(=O)CNC(=O)[C@H](Cc2ccc(O)cc2)NC(=O)[C@H](Cc2c[nH]cn2)NC(=O)[C@H](CCCCN)NC(=O)[C@H](CO)NC(=O)[C@H](Cc2c[nH]cn2)NC(=O)[C@H](CCCNC(=N)N)NC(=O)[C@H](CC(N)=O)NC(=O)[C@H](CCCCN)NC1=O [GMAOe1C_V3] (H-GACLKNRHSKHYGWFWYYRHCY-NH2; disulfide 3-21; N-terminus assumed) | 3 to 6 | 6 to 12 | 2 to 3 | 1.5 (≈ 4.31 µg/mL) | completely abrogated gray mold symptoms | Gray mold symptoms, drop inoculation assay (B. cinerea; peptide at 1.5 μM): more effective than GMAOe1C_V4 or GMAOe1C_WT
GACLKNRHSKHYGWFWYYRHCY-NH2 (cysteine pairing not given here) [GMAOe1C_V2] |  |  |  |  | completely abrogated gray mold symptoms | 
